# Measured values from publication PMC10427684, “Diversity-oriented synthesis encoded by deoxyoligonucleotides” (Nature Communications, 2023).
# Target: T1, glutathione S-transferase (GST), His-tagged (Schistosoma japonicum, UniProt P08515)
# T1 construct: His-tagged GST (Abcam ab89494); also the GST portion of N-His-GST-tagged USP7 (Lys208-Glu560)
# Assay: DSF with isolated His-tagged GST (dose-dependent thermal shift), confirmed by SPR
# Assay type: binding
# Settings: read-out: delta_Tm
# T1 sequence (P08515 2-218): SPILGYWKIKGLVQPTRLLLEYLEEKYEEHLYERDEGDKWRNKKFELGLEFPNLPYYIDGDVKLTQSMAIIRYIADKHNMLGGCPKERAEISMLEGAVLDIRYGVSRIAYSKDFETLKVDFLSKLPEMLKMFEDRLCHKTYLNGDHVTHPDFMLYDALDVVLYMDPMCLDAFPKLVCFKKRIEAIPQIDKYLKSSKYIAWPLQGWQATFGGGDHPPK
row,Compound,ΔTm at 100 µM [°C]
1,"C=CCNc1ncc(C(=O)N2CC[C@H](c3cccc(-c4cc(F)cc(OCC(=O)O)c4)c3)[C@@H]2C(=O)NC)s1 [compound 3, 3]",3.3

# Target: T2, Carbonic anhydrase II (CAII), BioVision kit #K473-100 (Homo sapiens, UniProt P00918)
# T2 construct: gene CA2; kit enzyme
# Assay: biochemical
# Set-up: CAII esterase activity inhibition kit, absorbance at 405 nm, dose-response
# Settings: not given
# Experimental: Carbonic anhydrase II (CAII) inhibition assays were performed using a commercially available kit (BioVision, #K473-100), following the manufacturer’s protocol. For each assayed DOSEDO compound, 11 concentrations (half-log dilutions from 10 µM to 100 pM) were tested, with three technical replicates performed on each of two separate 384-well µClear® medium-binding, flat-bottom polystyrene microplates (Greiner Bio-One, #82051-294) (n = 6 for each compound concentration); for 53 only, six technical replicates (n = 6) were performed on the same plate for each compound concentration. Each reaction well contained 3 µL of compound (prepared in 10% DMSO, 90% kit buffer), 25.5 µL of enzyme/buffer mix (1.4 µL enzyme, 24.1 µL kit buffer), and 1.5 µL of substrate, for a total volume of 30 µL. Absorbance at 405 nm was read on a Molecular Devices SpectraMax i3x. In addition to the experimental conditions, a DMSO control and a no-enzyme control were each performed with three technical replicates on each plate, except for the experiment with 53, where six technical replicates for each control were performed on the same plate. The average change in absorbance for the no-enzyme control was subtracted from the change in absorbance over the same time interval for each experimental condition and the DMSO control on the same plate. For each concentration of each compound, relative activity was calculated separately for each replicate based on the average change in absorbance for the DMSO control on the same plate. Dose-response curves were fitted and IC50 values and 95% confidence intervals were calculated using GraphPad Prism v9.2.0. Curves were fitted using GraphPad Prism’s log(inhibitor) vs. response-variable slope nonlinear regression equation, with the top asymptote constrained to 100. Outliers were detected and removed via GraphPad Prism’s ROUT method, with a Q-value of 1%. Error bars (only shown if greater than the height of the symbol) represent 95% confidence intervals (Supplementary Fig. 22).
row,Compound,IC50 [nM]
1,"C[C@@H]1CN([C@@H](C)CO)S(=O)(=O)c2ccc(-c3ccc(S(N)(=O)=O)cc3)cc2O[C@H]1CN(C)C(=O)c1cnoc1-c1ccco1 [compound 59, 5-(Furan-2-yl)-N-(((4R,5R)-2-((S)-1-hydroxypropan-2-yl)-4-methyl-1,1-dioxido-8-(4-sulfamoylphenyl)-2,3,4,5-tetrahydrobenzo[b][1,4,5]oxathiazocin-5-yl)methyl)-N-methylisoxazole-4-carboxamide]",16
2,"CNC(=O)[C@H]1C[C@H](Oc2cccc(-c3ccc(S(N)(=O)=O)cc3)c2)CN1Cc1cn2c(n1)CCC2 [compound 52, (2R,4S)-1-((6,7-Dihydro-5H-pyrrolo[1,2-a]imidazol-2-yl)methyl)-N-methyl-4-((4'-sulfamoyl-[1,1'-biphenyl]-3-yl)oxy)pyrrolidine-2-carboxamide]",64
3,"C[C@H](CO)N1C[C@H](C)[C@@H](CN(C)C(=O)c2coc(S(C)(=O)=O)c2)Oc2cc(-c3ccc(S(N)(=O)=O)cc3)ccc2S1(=O)=O [compound 58, N-(((4S,5S)-2-((R)-1-Hydroxypropan-2-yl)-4-methyl-1,1-dioxido-8-(4-sulfamoylphenyl)-2,3,4,5-tetrahydrobenzo[b][1,4,5]oxathiazocin-5-yl)methyl)-N-methyl-5-(methylsulfonyl)furan-3-carboxamide]",17
4,"C[C@H]1CN([C@@H](C)CO)S(=O)(=O)c2ccc(-c3ccc(S(N)(=O)=O)cc3)cc2O[C@H]1CN(C)C(=O)c1cnoc1-c1ccco1 [compound 57, 5-(Furan-2-yl)-N-(((4S,5R)-2-((S)-1-hydroxypropan-2-yl)-4-methyl-1,1-dioxido-8-(4-sulfamoylphenyl)-2,3,4,5-tetrahydrobenzo[b][1,4,5]oxathiazocin-5-yl)methyl)-N-methylisoxazole-4-carboxamide]",31
5,"CNC(=O)[C@H]1C[C@@H](Oc2cccc(C3=CCNCC3)c2)CN1S(=O)(=O)c1ccc(S(N)(=O)=O)cc1 [compound 45, (2R,4R)-N-Methyl-1-((4-sulfamoylphenyl)sulfonyl)-4-(3-(1,2,3,6-tetrahydropyridin-4-yl)phenoxy)pyrrolidine-2-carboxamide]",26

# Second part, the compound after the results:
row,IC50 [nM],Compound
1,34,"CC(=O)N1C[C@@H](c2ccc(-c3ccc(S(N)(=O)=O)cc3)cc2)C2(C1)CN(C(=O)C(C)Oc1cccc(C#N)c1)C2 (stereo partly drawn) [compound 54, 4'-((8S)-6-Acetyl-2-(2-(3-cyanophenoxy)propanoyl)-2,6-diazaspiro[3.4]octan-8-yl)-[1,1'-biphenyl]-4-sulfonamide]"
2,> 10000,"CC(=O)N1C[C@H](c2ccc(-c3cccc(S(N)(=O)=O)c3)cc2)C2(C1)CN(C(=O)c1nc(C)n3c1CCCC3)C2 [compound 53, (R)-4'-(6-Acetyl-2-(3-methyl-5,6,7,8-tetrahydroimidazo[1,5-a]pyridine-1-carbonyl)-2,6-diazaspiro[3.4]octan-8-yl)-[1,1'-biphenyl]-3-sulfonamide]"
3,279,"CC(=O)N1CC2(CN(Cc3ccc(S(N)(=O)=O)o3)C[C@@H]2c2ccc(-c3ccc(F)c(CN(C)C)c3)cc2)C1 [compound 46, (R)-5-((2-Acetyl-8-(3'-((dimethylamino)methyl)-4'-fluoro-[1,1'-biphenyl]-4-yl)-2,6-diazaspiro[3.4]octan-6-yl)methyl)furan-2-sulfonamide]"
